Source: patent US8101745B2, “Lung-targeted drugs” (priority 2004, dated 2012)
Several values for one entry are separate records, joined by “and”; a condition that tells them apart may be missing. Equal values may be shown once. Read-outs that look alike come from different tables or passages of the source.

Key:
[1] = in vivo; cited from earlier work
Vaccinia Copenhagen [2] = conditions: cited from earlier work; for EC50: Vaccinia Copenhagen, effective dose 50%
Cowpox Brighton [3] = format: cell-based
ectromelia virus [4] = conditions: mouse, in vivo, po, cited from earlier work
Cowpox Brighton [5] = conditions: cited from earlier work
Vaccinia Copenhagen [6] = format: cell-based
[7] = toxic dose 50%; read-out: TC50 (the source's name); cited from earlier work
ectromelia virus [8] = system: ectromelia virus; design: species or system Female A/NCR mice; conditions: mouse, in vivo, po
[9] = Oral pharmacokinetics of 14C-labeled drug, liver and lung levels in mice; conditions: for AUC 14C-Drug Liver / AUC 14C-Drug Lung / Ratio Liver/Lung / Ratio Lung/Liver: 10 mg/kg single oral dose, 0 to 72 hours; for Ratio Liver/Lung / Ratio Lung/Liver: ratio of AUC

## Nc1ccn(C[C@@H](CO)OCP(=O)(O)O)c(=O)n1 [CDV, cidofovir]
[1]
  oral bioavailability: < 6%
Vaccinia Copenhagen [2]
  EC50: 31000 nM
Cowpox Brighton [3]
  SI: >7.5
Ectromelia virus [4]; 10 mg/kg
  Lung titer: 3 × 10^6 pfu/ml
  Mortality: 100%
  Spleen titer: 3 × 10^6 pfu/ml
Cowpox Brighton [5]
  EC50: 42000 nM
Vaccinia Copenhagen [6]
  SI: >10
[7]
  CC50: > 317000 nM

## CCCCCCCCCCCCCCCCCCOC[C@H](COP(=O)(O)CO[C@H](CO)Cn1ccc(N)nc1=O)OCc1ccccc1 [ODBG-CDV, 1-O-Octadecyl-2-O-benzyl-sn-glycero-3-cidofovir]
Ectromelia virus [8]
  Mortality day 21: 2/10 and 0/10
  protection from death: provides protection from death
Ectromelia virus [8]; 2 mg/kg/day
  Mean time to death: 13.0 ± 1.4
[9]; 10 mg/kg oral, mice, over 72 hours, compared with HDP-CDV or ODE-CDV (FIG. 1)
  Lung levels of 14C-labeled drug: much higher
[9]; 10 mg/kg oral, mice, over 72 hours, compared with HDP-CDV or ODE-CDV (FIG. 2)
  liver levels of 14C-labeled drug: lower
[9]; mice
  AUC 14C-Drug Liver: 318 nmol · gm · hrs
  AUC 14C-Drug Lung: 581 nmol · gm · hrs
[9]; given orally, versus non lung-targeted alkoxyalkyl derivatives
  lung area under curve relative to alkoxyalkyl derivatives of CDV: 10 fold
[9]
  Ratio Liver/Lung: 0.55
  Ratio Lung/Liver: 1.82
Vaccinia Copenhagen [2]
  EC50: 400 nM
Vaccinia Copenhagen [2]; in words
  activity against vaccinia virus in vitro: highly active
Cowpox Brighton [3]
  SI: 157
Cowpox Brighton [5]
  EC50: 300 nM
  activity against cowpox virus in vitro: highly active
Vaccinia Copenhagen [6]
  SI: 118
[7]
  CC50: 47000 nM

## CCCCCCCCCCCCCCCCCCOCCOP(=O)(O)CO[C@H](CO)Cn1ccc(N)nc1=O [ODE-CDV, octadecyloxyethyl-CDV]
[9]; mice
  AUC 14C-Drug Liver: 1215 nmol · gm · hrs
  AUC 14C-Drug Lung: 60 nmol · gm · hrs
[9]
  Ratio Lung/Liver: 0.05
[9]; 10 mg/kg
  Ratio Liver/Lung: 20.3
Vaccinia Copenhagen [2]
  EC50: 600 nM
Cowpox Brighton [3]
  SI: 105
Ectromelia virus [4]; 5 mg/kg
  Liver titer: <10^2 pfu/ml
  Lung titer: 3 × 10^5 pfu/ml
  Mortality: 0%
  Spleen titer: <10^2 pfu/ml
Cowpox Brighton [5]
  EC50: 500 nM
Vaccinia Copenhagen [6]
  SI: 105
[7]
  CC50: 21000 nM

## CCCCCCCCCCCCCCCCOCCCOP(=O)(O)CO[C@H](CO)Cn1ccc(N)nc1=O [HDP-CDV, hexadecyloxypropyl-CDV]
[9]; mice
  AUC 14C-Drug Liver: 1367 nmol · gm · hrs
  AUC 14C-Drug Lung: 49 nmol · gm · hrs
[9]
  Ratio Lung/Liver: 0.04
[9]; 10 mg/kg
  Ratio Liver/Lung: 27.9
Vaccinia Copenhagen [2]
  EC50: 600 nM
Cowpox Brighton [3]
  SI: 58
Ectromelia virus [4]; 10 mg/kg
  Liver titer: <10^2 pfu/ml
  Lung titer: 5 × 10^4 pfu/ml
  Mortality: 0%
  Spleen titer: <10^2 pfu/ml
Cowpox Brighton [5]
  EC50: 500 nM
Vaccinia Copenhagen [6]
  SI: 48
[7]
  CC50: 29000 nM
